Measurements published in patent US20170008928A1, “NOVEL PEPTIDES AND PEPTIDE DERIVATIVES AND USES THEREOF” (Novo Nordisk A/S, priority 2015, published 2017).
Read-outs that look alike come from different tables or passages of the source. Starred links: 1 amine or outer side, 2 acyl side, 3 side chain; linkers in the order of their positions; H or OH if unused. Non-standard residues stand in square brackets, D forms with d. Residues, ends and D or L forms follow the SMILES beside them. *: point of attachment. Phe(4-CH2SO3H) = N[C@@H](Cc1ccc(CS(=O)(=O)O)cc1)C(=O)O; sY = N[C@@H](Cc1ccc(OS(=O)(=O)O)cc1)C(=O)O; C18 diacid = O=C(O)CCCCCCCCCCCCCCCCC(=O)*; γGlu = O=C(O)[C@H](CCC(=O)[*:2])N[*:1]; Met(O2) = CS(=O)(=O)CC[C@H](N)C(=O)O; NMeF = CN[C@@H](Cc1ccccc1)C(=O)O; dNMeD = CN[C@H](CC(=O)O)C(=O)O; Nle = CCCC[C@H](N)C(=O)O; AEEA = NCCOCCOCC(=O)O

Experiments:
[1] = biological target: T1, human cholecystokinin-2 receptor (CCK-2R) (Homo sapiens, UniProt P32239); experiment: In vitro potency on CCK-2R, whole cell functional assay (IP1 accumulation, IP-One HTRF); format: cell-based
T1 construct: host or cells: 1321-N1 cells (plasma membranes prepared by Evotec AG Hamburg)
T1 sequence (P32239 1-447): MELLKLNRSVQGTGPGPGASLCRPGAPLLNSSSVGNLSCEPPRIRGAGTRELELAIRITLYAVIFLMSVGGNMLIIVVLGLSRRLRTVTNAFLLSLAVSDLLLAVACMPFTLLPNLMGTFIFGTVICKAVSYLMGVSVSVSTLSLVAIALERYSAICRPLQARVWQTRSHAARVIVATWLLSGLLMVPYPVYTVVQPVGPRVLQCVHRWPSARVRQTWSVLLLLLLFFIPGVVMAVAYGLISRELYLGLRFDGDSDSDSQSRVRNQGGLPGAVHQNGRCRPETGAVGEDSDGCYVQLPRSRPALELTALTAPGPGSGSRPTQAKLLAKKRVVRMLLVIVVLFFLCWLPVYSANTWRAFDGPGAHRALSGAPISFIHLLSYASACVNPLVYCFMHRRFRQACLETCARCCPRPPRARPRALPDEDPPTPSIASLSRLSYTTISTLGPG

[2] = biological target: T1, human cholecystokinin-2 receptor (CCK-2R); experiment: In vitro receptor binding to CCK-2R, SPA displacement of [125I]-CCK-8s from plasma membranes
[3] = biological target: T2, human cholecystokinin-1 receptor (CCK-1R) (Homo sapiens, UniProt P32238); experiment: In vitro potency on CCK-1R, whole cell functional assay (IP1 accumulation, IP-One HTRF); format: cell-based
T2 construct: host or cells: 1321-N1 cells
T2 sequence (P32238 1-428): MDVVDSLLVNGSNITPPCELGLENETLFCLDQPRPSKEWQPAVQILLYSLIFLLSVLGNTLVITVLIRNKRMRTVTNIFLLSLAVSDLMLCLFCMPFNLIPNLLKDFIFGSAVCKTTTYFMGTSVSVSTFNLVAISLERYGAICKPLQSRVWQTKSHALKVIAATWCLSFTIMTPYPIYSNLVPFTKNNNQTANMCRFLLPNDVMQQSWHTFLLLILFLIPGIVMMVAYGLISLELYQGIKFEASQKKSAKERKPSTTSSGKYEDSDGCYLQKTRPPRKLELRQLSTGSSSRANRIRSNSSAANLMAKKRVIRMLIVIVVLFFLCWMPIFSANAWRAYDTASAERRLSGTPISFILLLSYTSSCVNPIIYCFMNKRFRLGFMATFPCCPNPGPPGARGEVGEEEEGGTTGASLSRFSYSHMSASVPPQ

[4] = 1321-N1 cells stably expressing CCK-2R, IP1 accumulation, highest dose tested 1×10^6 pM, read-out: EC50 (CCK-2R)
[5] = 1321-N1 cells stably expressing CCK-1R, IP1 accumulation, average of min. three replicates, read-out: EC50 (CCK-1R)
[6] = displacement of [125I]-CCK-8s, plasma membranes of 1321-N1 cells expressing CCK-2R, highest dose tested 1×10^7 pM, read-out: IC50 (CCK-2R)

Row | EC50 [1, 4] | EC50 [3, 5] | IC50 [2, 6] | Structure (SMILES) | IC50 [2] | EC50 [1] | EC50 [3]
1 | 270 nM | 0.21 nM | 880 nM | CCCC[C@H](NC(=O)[C@H](Cc1c[nH]c2ccccc12)NC(=O)CNC(=O)[C@H](CCCNC(=N)N)NC(=O)[C@H](Cc1ccc(OS(=O)(=O)O)cc1)NC(=O)[C@H](CC(=O)O)NC(=O)COCCOCCNC(=O)COCCOCCNC(=O)CC[C@H](NC(=O)CCCCCCCCCCCCCCCCC(=O)O)C(=O)O)C(=O)N(C)[C@H](CC(=O)O)C(=O)N(C)[C@@H](Cc1ccccc1)C(N)=O [Example 17, 2-[2-[2-[[2-[2-[2-[[(4S)-4-Carboxy-4-(17-carboxyheptadecanoylamino)butanoyl]amino]ethoxy]ethoxy]acetyl]amino]ethoxy]ethoxy]acetyl-Asp-sTyr-Arg-Gly-Trp-Nle-DMeAsp-MePhe-amide] ({C18 diacid-γGlu-AEEA-AEEA}-D[sY]RGW[Nle][dNMeD][NMeF]-NH2) |  |  | 
2 | > 1000 nM | 0.25 nM | > 10000 nM | CCCC[C@H](NC(=O)[C@H](Cc1ccc(CS(=O)(=O)O)cc1)NC(=O)[C@@H](N)CC(=O)O)C(=O)NCC(=O)N[C@@H](Cc1c[nH]c2ccccc12)C(=O)N[C@@H](CCCC)C(=O)N(C)[C@H](CC(=O)O)C(=O)N(C)[C@@H](Cc1ccccc1)C(N)=O [Example 55, Asp-Phe(4-sulfomethyl)-Nle-Gly-Trp-Nle-DMeAsp-MePhe-amide] (H-D[Phe(4-CH2SO3H)][Nle]GW[Nle][dNMeD][NMeF]-NH2) |  |  | 
3 | > 1000 nM | 0.21 nM | > 10000 nM | CCCC[C@H](NC(=O)[C@H](Cc1c[nH]c2ccccc12)NC(=O)CNC(=O)[C@H](CC(C)C)NC(=O)[C@H](Cc1ccc(OS(=O)(=O)O)cc1)NC(=O)[C@@H](N)CC(=O)O)C(=O)N(C)[C@H](CC(=O)O)C(=O)N[C@@H](Cc1ccccc1)C(N)=O [Example 58, Asp-sTyr-Leu-Gly-Trp-Nle-DMeAsp-Phe-amide] |  |  | 
4 |  |  |  | CC(C)C[C@H](NC(=O)[C@H](Cc1ccc(OS(=O)(=O)O)cc1)NC(=O)[C@@H](N)CC(=O)O)C(=O)NCC(=O)N[C@@H](Cc1c[nH]c2ccccc12)C(=O)N[C@@H](CC(C)C)C(=O)N(C)[C@H](CC(=O)O)C(=O)N(C)[C@@H](Cc1ccccc1)C(N)=O [Example 64, Asp-sTyr-Leu-Gly-Trp-Leu-DMeAsp-MePhe-amide] | > 10000 nM | > 1000 nM | 0.25 nM
5 | > 1000 nM | 0.19 nM | > 10000 nM | CCCC[C@H](NC(=O)[C@H](Cc1c[nH]c2ccccc12)NC(=O)CNC(=O)[C@@H]1CCCN1C(=O)[C@H](Cc1ccc(OS(=O)(=O)O)cc1)NC(=O)[C@@H](N)CC(=O)O)C(=O)N(C)[C@H](CC(=O)O)C(=O)N(C)[C@@H](Cc1ccccc1)C(N)=O [Example 69, Asp-sTyr-Pro-Gly-Trp-Nle-DMeAsp-MePhe-amide] (H-D[sY]PGW[Nle][dNMeD][NMeF]-NH2) |  |  | 
6 | 920 nM | 0.21 nM | > 10000 nM | CCCC[C@H](NC(=O)[C@H](Cc1c[nH]c2ccccc12)NC(=O)CNC(=O)[C@H](CC(C)C)NC(=O)[C@H](Cc1ccc(OS(=O)(=O)O)cc1)NC(=O)[C@@H](N)CCC(=O)O)C(=O)N(C)[C@H](CC(=O)O)C(=O)N(C)[C@@H](Cc1ccccc1)C(N)=O [Example 77, Glu-sTyr-Leu-Gly-Trp-Nle-DMeAsp-MePhe-amide] (H-E[sY]LGW[Nle][dNMeD][NMeF]-NH2) |  |  | 
7 | > 1000 nM | 0.19 nM |  | CCCC[C@H](NC(=O)[C@H](Cc1c[nH]c2ccccc12)NC(=O)CNC(=O)[C@H](CO)NC(=O)[C@H](Cc1ccc(OS(=O)(=O)O)cc1)NC(=O)[C@@H](N)CC(=O)O)C(=O)N(C)[C@H](CC(=O)O)C(=O)N(C)[C@@H](Cc1ccccc1)C(N)=O [Example 79, Asp-sTyr-Ser-Gly-Trp-Nle-DMeAsp-MePhe-amide] (H-D[sY]SGW[Nle][dNMeD][NMeF]-NH2) |  |  | 
8 | > 1000 nM | 0.16 nM | > 10000 nM | CCCC[C@H](NC(=O)[C@H](Cc1c[nH]c2ccccc12)NC(=O)CNC(=O)[C@H](C)NC(=O)[C@H](Cc1ccc(OS(=O)(=O)O)cc1)NC(=O)[C@@H](N)CC(=O)O)C(=O)N(C)[C@H](CC(=O)O)C(=O)N(C)[C@@H](Cc1ccccc1)C(N)=O [Example 80, Asp-sTyr-Ala-Gly-Trp-Nle-DMeAsp-MePhe-amide] (H-D[sY]AGW[Nle][dNMeD][NMeF]-NH2) |  |  | 

Row | Structure (SMILES) | EC50 [1, 4] | EC50 [3, 5] | IC50 [2, 6] | IC50 [2] | EC50 [1] | EC50 [3]
9 | CC(C)C[C@H](NC(=O)[C@H](Cc1ccc(OS(=O)(=O)O)cc1)NC(=O)[C@H](CC(=O)O)NC(=O)COCCOCCNC(=O)COCCOCCNC(=O)CC[C@H](NC(=O)CCCCCCCCCCCCCCCCC(=O)O)C(=O)O)C(=O)NCC(=O)N[C@@H](Cc1c[nH]c2ccccc12)C(=O)N[C@@H](CCS(C)(=O)=O)C(=O)N(C)[C@H](CC(=O)O)C(=O)N(C)[C@@H](Cc1ccccc1)C(N)=O [Example 12, 2-[2-[2-[[2-[2-[2-[[(4S)-4-Carboxy-4-(17-carboxyheptadecanoylamino)butanoyl]amino]ethoxy]ethoxy]acetyl]amino]ethoxy]ethoxy]acetyl-Asp-sTyr-Leu-Gly-Trp-Met(O2)-DMeAsp-MePhe-amide] ({C18 diacid-γGlu-AEEA-AEEA}-D[sY]LGW[Met(O2)][dNMeD][NMeF]-NH2) | > 1000 nM | 0.14 nM |  | > 10000 nM |  | 
